Test results as given in ChEMBL document CHEMBL1201862, “PubChem BioAssay data set” (2004).
Where a name gives a salt, the structure may show the parent alone. Activity calls are given as the source filed them.

What was measured:
cells [1] = experiment: cells
Major prion protein = Major prion protein (Homo sapiens, UniProt P04156); assay type: functional, cell-based
[2] = viability loss in HEK293 cells – cell-based, plate reader, cherry-picked samples, cytotoxicity control, dose response (AID 743446); assay type: functional
[3] = blockade of melanocortin 4 receptor signaling – cell-based, plate reader, cherry pick, counter-screen for LGR2 antagonist project, dose response (AID 743444); assay type: functional;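 note: transfected HEK 293 cells stimulated with alpha-MSH peptide; potency of inhibitors of the alpha-MSH evoked signal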
[4] = Luminescence Cell-Based Dose Response HTS to Identify Inhibitors of 5'UTR Stem-Loop Driven Prion Protein mRNA Translation in H4 Neuroglioblastoma Cells. [Related pubchem assays: 1827 (Project Summary), 1813 (Primary HTS)]; assay type: functional
BJ [5] = experiment: BJ-TERT-LT-ST fibroblast viability loss – cell-based, RAS-independent, luminescence, dose response (AID 1935); assay type: functional; conditions: Homo sapiens;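 note: BJ fibroblasts immortalized with TERT plus LT and ST oncogenes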
[6] = A549 cell cytotoxicity, dose response, cytotoxicity control, plate reader, cherry-pick, antagonist series (AID 743412); assay type: functional, cell-based
[7] = toxicity toward HepG2 liver cells – cell-based, plate reader, cherry-pick, antagonist series, cytotoxicity control, dose response (AID 743416); assay type: functional
[8] = blockers of bursicon-stimulated LGR2 cAMP reporter – cell-based, HEK293, CRE-luciferase reporter, cherry pick, set 2, dose response (AID 743343); assay type: functional;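 note: transfected cells were stimulated with diluted bursicon conditioned medium after compound addition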
[9] = alpha-synuclein stem-loop luciferase translation blockers – H4 neuroglioma cells, luminescence, confirmation (AID 1988); assay type: functional, cell-based
BJ [10] = experiment: BJ-TERT fibroblast viability loss – cell-based, RAS-independent, luminescence, dose response (AID 1933); assay type: functional; conditions: Homo sapiens
[11] = DRD fibroblast viability loss – cell-based, non-viral oncogenic, luminescence, dose response (AID 1934); assay type: functional; conditions: Homo sapiens
BJ [12] = experiment: cells; assay type: functional, cell-based; conditions: Homo sapiens
[13] = luciferase reporter signal suppression in cells – H4 neuroglioma cells, luminescence, dose response (AID 1990); assay type: functional, cell-based
Estrogen receptor beta [14] = target: T1, Estrogen receptor beta (Homo sapiens, UniProt Q92731);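 note: recombinant ER-beta bound to coactivator SRC1 peptide in presence of estradiol agonist; inhibitors block coactivator peptide binding and lower the FRET signal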
Estrogen receptor beta [15] = target: T1, Estrogen receptor beta; experiment: blockers of SRC-3 recruitment to ERβ – biochemical, ELISA, streptavidin-HRP readout, orthogonal assay, confirmation (AID 1060)
cells [16] = experiment: cells; remark: listed apart in the source
[17] = NIH3T3 cell viability loss – ATP luminescence, mouse fibroblasts, counter-screen, dose response (AID 2010); assay type: functional, cell-based;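 note: cells exposed to compound for about 90 hours before reading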
[18] = Trypanosoma cruzi growth suppression in host cells – NIH3T3 host cells, beta-gal luminescence, confirmation (AID 2044); assay type: functional, cell-based;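 note: intracellular parasites grown in NIH/3T3 mouse fibroblasts as host cells; luminescent beta-galactosidase reporter signal from transgenic T. cruzi replicating inside host cells; inhibitors lower the luminescence signal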
[19] = target: Induced myeloid leukemia cell differentiation protein Mcl-1 (Homo sapiens, UniProt Q07820); experiment: blockers of MCL1 binding to BIM peptide – biochemical, fluorescence polarization, BIM-BH3 peptide, 1536-well, dose response (AID 2217)
Bcl-2-like protein 1 = Bcl-2-like protein 1 (Homo sapiens, UniProt Q07817); experiment: blockers of BCLXL peptide binding – biochemical, fluorescence polarization, 1536-well, selectivity assay for MCL1 inhibitor project, dose response (AID 2218)
H9c2 = experiment: cells; assay type: functional, cell-based; conditions: Rattus norvegicus, H9c2, Myocardium;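 note: confirmatory concentration-response retest of ultra-high-throughput screening hits for modulation of myocardial damage; cell death induced by hydrogen peroxide oxidative stress; compound pretreatment for 60 min then peroxide exposure for 2 h; potency is for protecting the cells against peroxide damage rather than for killing them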
[20] = target: T2, COUP transcription factor 2 (Homo sapiens, UniProt P24468); experiment: Luminescence-based cell-based high throughput dose response assay to identify inhibitors of COUP-TFII (NR2F2).; assay type: functional;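 note: HEK293 cells transiently cotransfected with COUP-TFII expression vector and reporter; luciferase reporter luminescence driven by COUP-TFII from the pX2-168 reporter plasmid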
T2 sequence (P24468 whole entry): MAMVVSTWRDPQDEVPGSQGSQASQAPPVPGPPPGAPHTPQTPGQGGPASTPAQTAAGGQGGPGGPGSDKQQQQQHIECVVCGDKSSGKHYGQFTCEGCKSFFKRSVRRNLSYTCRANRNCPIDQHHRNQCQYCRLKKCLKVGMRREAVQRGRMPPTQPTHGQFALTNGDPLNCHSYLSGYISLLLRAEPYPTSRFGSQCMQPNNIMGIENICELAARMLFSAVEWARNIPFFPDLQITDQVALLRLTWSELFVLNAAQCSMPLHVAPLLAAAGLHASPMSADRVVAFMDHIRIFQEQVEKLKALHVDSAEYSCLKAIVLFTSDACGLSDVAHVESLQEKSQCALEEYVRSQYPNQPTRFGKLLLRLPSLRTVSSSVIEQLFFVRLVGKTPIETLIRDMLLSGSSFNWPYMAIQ

[21] = target: T3, Heat shock factor protein 1 (Mus musculus, UniProt P38532); experiment: decrease of HSF1-responsive luciferase luminescence – cell-based, NIH3T3, dose retest, confirmation (AID 2382); assay type: functional;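 note: NIH3T3 fibroblasts with HSF1-driven luciferase reporter stressed by proteasome inhibitor MG132; luminescence from HSF1-driven luciferase expression after 8 hours of MG132 stress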
T3 sequence (P38532 whole entry): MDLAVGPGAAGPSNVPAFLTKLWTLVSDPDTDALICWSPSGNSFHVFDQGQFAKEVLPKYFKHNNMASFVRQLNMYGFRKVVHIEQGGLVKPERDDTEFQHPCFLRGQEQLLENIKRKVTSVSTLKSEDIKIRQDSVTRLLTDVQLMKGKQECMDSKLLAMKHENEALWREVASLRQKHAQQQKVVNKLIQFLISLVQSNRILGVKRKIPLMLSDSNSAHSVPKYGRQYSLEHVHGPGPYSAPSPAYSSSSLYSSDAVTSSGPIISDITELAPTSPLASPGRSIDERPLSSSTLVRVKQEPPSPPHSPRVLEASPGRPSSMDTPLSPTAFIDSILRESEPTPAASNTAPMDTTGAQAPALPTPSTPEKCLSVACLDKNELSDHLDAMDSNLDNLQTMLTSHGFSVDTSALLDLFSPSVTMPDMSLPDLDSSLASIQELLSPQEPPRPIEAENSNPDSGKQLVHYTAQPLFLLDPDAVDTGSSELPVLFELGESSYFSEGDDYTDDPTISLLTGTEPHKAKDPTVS

fMet-Leu-Phe receptor = target: T4, fMet-Leu-Phe receptor (Homo sapiens, UniProt P21462); experiment: formyl peptide receptor binders – dose response (AID 519); assay type: functional
T4 sequence (P21462 whole entry): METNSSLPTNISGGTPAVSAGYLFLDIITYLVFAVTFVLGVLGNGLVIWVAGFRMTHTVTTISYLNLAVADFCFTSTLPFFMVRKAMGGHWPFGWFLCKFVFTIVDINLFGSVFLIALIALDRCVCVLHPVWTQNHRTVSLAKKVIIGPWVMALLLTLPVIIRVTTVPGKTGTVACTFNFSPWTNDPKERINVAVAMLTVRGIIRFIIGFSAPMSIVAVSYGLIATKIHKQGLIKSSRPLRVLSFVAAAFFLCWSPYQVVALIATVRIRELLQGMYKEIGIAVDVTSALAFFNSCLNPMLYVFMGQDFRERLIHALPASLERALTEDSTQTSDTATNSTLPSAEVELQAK

Paired box protein Pax-8 = Paired box protein Pax-8 (Homo sapiens, UniProt Q06710); experiment: PAX8 transcriptional activity inhibition in RMG-I – RMG-I cells, luciferase, cherry-pick, dose response (AID 687027); assay type: functional, cell-based;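 note: luciferase reporter driven by Pax8 target thyroperoxidase promoter measured by SteadyGlo luminescence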
[22] = off-target signal loss in HeLa-CEM21 co-culture – HeLa F-luc CTL cells, cherry-picked, counter-screen for HIV-1 Env fusion inhibitor project, dose response (AID 652040); assay type: functional, cell-based;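 note: potency for signal decrease marking cytotoxic or nonspecific inhibition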
[23] = blockers of HIV-1 envelope-mediated cell-cell fusion – cherry-pick, dose response (AID 652057); assay type: functional, cell-based
[24] = blockers of HIV-1 ZM109 envelope-driven cell-cell fusion – HeLa effector, CEM target cells, luciferase, cherry-pick, dose response (AID 652058); assay type: functional, cell-based;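 note: luciferase signal from HIV-1 Env mediated cell-cell fusion of effector and target cells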
[25] = HIV-1 AD8 envelope cell-cell fusion blockers – cherry-pick, dose response (AID 652062); assay type: functional, cell-based;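 note: luciferase signal from cell-cell fusion driven by HIV-1 clade B AD8 Env; potency is for inhibitors of fusion seen as a drop in luminescence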
[26] = viability loss in CEM21 cells – cell-based, CellTiter-Glo luminescence, cherry-picked, cytotoxicity control for viral fusion inhibitor project, dose response (AID 652042); assay type: functional;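 note: potency for signal decrease meaning cytotoxicity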
[27] = OVCAR8 cell viability loss – plate reader, dry powder samples, PAX8 project, dose response (AID 743197); assay type: functional, cell-based; conditions: OVCAR-8
[28] = T. cruzi growth inhibition in host cells, dose response, cell-based, plate reader, dry powder, set 2 (AID 652275); assay type: functional
[29] = Reduced DLD-1 viability, concentration-response, CellTiter-Glo luminescence (AID 1117352); assay type: functional
[30] = cytotoxicity toward HCT116 cells – cell-based, CellTiter-Glo luminescence, IC50, dose response (AID 1117332); assay type: functional; conditions: HCT-116
[31] = cytotoxicity toward Colo320 cells – cell-based, CellTiter-Glo luminescence, IC50, dose response (AID 1117334); assay type: functional; conditions: COLO 320
[32] = cytotoxicity toward HT-29 cells – cell-based, CellTiter-Glo luminescence, IC50, dose response (AID 1117330); assay type: functional
[33] = SNU-C1 cell viability reduction, dose response, CellTiter-Glo luminescence (AID 1117323); assay type: functional, cell-based
[34] = RKO cell viability reduction, dose response, CellTiter-Glo luminescence (AID 1117322); assay type: functional
[35] = CellTiter-Glo luminescence survival assay, SW480 colon tumor line, concentration-response curve, half-maximal inhibitory concentration (AID 1117338); assay type: functional

SMILES: CC(=O)c1sccc1NC(=O)c1ccccc1C(=O)O
- IC50 (cells [1]): > 138 µM (inactive)
- IC50 (Major prion protein): 3.09 µM (active)

SMILES: Cc1cccc(NC(=O)c2onc3c2CCCC3)n1
- AC50 [2]: 15.9 µM (active)
- AC50 [3]: 5.51 µM (active)
- EC50 [4]: 8.8 µM (active)
- EC50 (BJ [5]): > 150 µM (inconclusive)
- AC50 [6]: 19.6 µM (active)
- AC50 [7]: 19.4 µM (active)
- AC50 [8]: 3.23 µM (active)
- EC50 [9]: 6.78 µM (active)
- EC50 (BJ [10]): 18 µM (active)
- EC50 [11]: 13.3 µM (active)
- EC50 (BJ [12]): 15 µM (active)

SMILES: Oc1ccccc1-c1nnc(SCCN2CCOCC2)n1Cc1ccccc1
- EC50 [13]: 9.74 µM (active)
- IC50 (Estrogen receptor beta [14]): 3.51 µM (active)
- EC50 [4]: 8.21 µM (active)
- EC50 [9]: 7.29 µM (active)
- IC50 (Estrogen receptor beta [15]): < 0.023 µM (not active)

SMILES: O=c1[nH]c2ccccc2c(=O)n1Cc1ccco1
- IC50 (Estrogen receptor beta [14]): > 50 µM (not active)

SMILES: CCc1ccc(CN2CCCC(CNC(=O)c3cccc(OC)c3OC)C2)cc1 (configuration not stated)
- EC50 (cells [16]): 0.37 µM (active)
- EC50 [17]: > 60 µM (not active)
- EC50 [18]: < 0.1 µM (active)

SMILES: CNc1ccccc(C(=O)/C=C/c2ccccc2OC)c1=O
- IC50 [19]: > 109 µM (not active)
- IC50 (Bcl-2-like protein 1): > 109 µM (not active)
- IC50 (H9c2): 11.5 µM (active)

SMILES: Cc1sc(NC(=O)c2ccco2)c(C(c2cccnc2)N2CCN(c3ccc(F)cc3)CC2)c1C (configuration not stated)
- EC50 (cells [16]): 0.385 µM (active)
- EC50 [17]: > 60 µM (not active)
- EC50 [18]: < 0.1 µM (active)

SMILES: COCCn1c(C)c(C)c2c(NCCc3ccccc3)ncnc21
- AC50 [2]: > 52 µM (inactive)
- AC50 [3]: 9.75 µM (active)
- AC50 [8]: 6.87 µM (active)
- IC50 [20]: 40.1 µM (inactive)
- EC50 [21]: < 0.16 µM (active)

SMILES: COc1ccc(CN2CCCC(CO)(Cc3cccc(Cl)c3)C2)cc1OC (configuration not stated)
- EC50 (cells [16]): 0.352 µM (active)
- EC50 [17]: > 30 µM (not active)
- EC50 [18]: < 0.1 µM (active)

SMILES: COc1ccc(C(=O)C2=C(O)C(=O)N(Cc3ccco3)C2c2ccc(OC)cc2OC)cc1 (configuration not stated)
- Ki (fMet-Leu-Phe receptor): > 66.7 µM (inactive)

SMILES: N=C(NOC(=O)COc1ccc2ccccc2c1Br)c1ccccn1
- IC50 (cells [1]): > 138 µM (inactive)
- IC50 (Major prion protein): 4.71 µM (active)

SMILES: Nc1ncnc2c(C3OC(CO)C(O)C3O)scc12 (configuration not stated)
- AC50 (Paired box protein Pax-8): < 0.26 µM (active)
- AC50 [22]: 3.78 µM (active)
- AC50 [23]: 0.322 µM (active)
- AC50 [24]: 2.04 µM (active)
- AC50 [25]: 3.45 µM (active)
- AC50 [26]: < 0.26 µM (active)

SMILES: O=C(C[C@@H]1CC[C@H]2[C@@H](COC[C@@H](O)CN2Cc2cccc(C(F)(F)F)c2)O1)NCc1ccc(F)cc1
- AC50 (Paired box protein Pax-8): 27.9 µM (active)
- AC50 [27]: 51.7 µM (active)

SMILES: O=C1c2ccccc2S(=O)(=O)c2cc(N3CCN(C(=O)c4ccccc4)CC3)ccc21
- AC50 [2]: > 52 µM (inactive)
- AC50 [3]: 22.3 µM (active)
- AC50 [6]: 23.5 µM (active)
- AC50 [7]: > 52 µM (inactive)
- AC50 [8]: 20.8 µM (active)

SMILES: CC(C)N1C[C@@H](CN(C)Cc2ccc(Cl)cc2)Oc2c(NC(=O)c3ccncn3)cccc2C1=O
- AC50 [28]: 0.00548 µM (active)

SMILES: CN(C)C(=O)c1cccc(-c2ccc([C@@H]3[C@@H](CO)N4CCCCN(C(=O)C5CCC5)C[C@H]34)cc2)c1
- AC50 [28]: 14.4 µM (active)

SMILES: CCc1c(C)[nH]c2c(C#N)c(C)nn2c1=O
- Ki (fMet-Leu-Phe receptor): 21.7 µM (inactive)

SMILES: CCN(CCO)CCCC(C)Nc1ccnc2cc(Cl)ccc12 (configuration not stated) [HYDROXYCHLOROQUINE SULFATE]
- IC50 [29]: > 20 µM (inactive)
- IC50 [30]: > 20 µM (inactive)
- IC50 [31]: > 20 µM (inactive)
- IC50 [32]: > 20 µM (inactive)
- IC50 [33]: > 20 µM (inactive)
- IC50 [34]: > 20 µM (inactive)
- IC50 [35]: > 20 µM (inactive)
